Tests used:
[1] = tested on: hPSCs; experiment: hPSC differentiation to mesoderm and KDR+CD235a+ primitive hematopoietic precursors; format: cell-based, human
Excerpt: Inhibition of Wnt signaling biases early mesoderm cells from the posterior primitive streak to generate KDR+CD235a+ primitive hematopoietic precursors (Sturgeon et al., Nat. Biotechnol. (2014); 32, 554-561). These precursors will go on to initiate primitive hematopoiesis in the yolk sac, giving rise to early EMPs. In this microglial differentiation scheme, the present example adapted Wnt inhibition to induce primitive hematopoiesis from hPSCs in a monolayer strategy. […] These cells were also KDR+ and CD235a+ (primitive hematopoietic precursors) by day 4 of differentiation by flow cytometry. […] Next, the present example developed the timeline of hemogenic endothelium and hematopoietic cell. Hemogenic endothelium developed after 1 day of replating the sorted KDR^+CD235A^+ primitive hematopoietic precursors. These cells gave rise to hematopoietic cells in suspension over 7 days in culture, gradually becoming more numerous in culture (FIG. 2). In order to validate hemogenic endothelium by VE-cadherin+staining, at 1 day post-sort, the cells were positive for VE-cadherin by immunofluorescence confirming that they were hemogenic endothelium, and the cells in suspension had characteristic small nuclei of hematopoietic cells (FIG. 3). […]

[2] = tested on: rodent GSK3β homologs; details: cited from earlier work
[3] = tested on: WNT pathway; details: at the level of the pathway activator Porcupine; read-out: IC50 WNT pathway inhibition; cited from earlier work
[4] = tested on: SW480 cells; details: cited from earlier work
[5] = tested on: hPSC-derived microglial cells; experiment: Amyloid-beta phagocytosis by hPSC-derived microglial cells (FACS); format: cell-based, human; details: flow cytometry
Experimental: (§1) hPSC-derived microglia were used to model two neurodegenerative diseases, Alzheimer's and Amyotrophic Lateral Sclerosis (ALS). Mixed cultures of hPSC-derived microglia and Alzheimer's iPSC-derived neurons allowed to observe microglial activation in the disease culture, particularly with respect to increased complement C3 release. […] C3 was measured via ELISA. Additionally, GM-C SF diminished the C3 release in all cultures, both Alzheimer's and control (FIG. 20). […] Amyloid-β burden was decreased in microglial co-cultures with selectivity for amyloid-42 peptide (FIG. 21). […] Increased fluorescence of 42-488 inside microglial cells indicated increased uptake (FIG. 22). […] Switching fluorophores yielded similar result: amyloid-beta 42 was taken up more by microglial cells (FIG. 23). The fluorophores representing amyloid 42 and 40 were switched to make sure the effect of increased 42 brightness within cells was not due to a technical fluorophore brightness effect. Even with the switched fluorophores, in this experiment 42 was tagged to 555 and 40 to 488, there was more 42 brightness within microglial cells via immunofluorescence, corroborating the previous results that microglial cells phagocytosed amyloid-beta 42 selectively.

[6] = tested on: complement C3 release from hPSC-derived microglia cultures; experiment: C3 release in Alzheimer's and H9 control co-cultures (ELISA); format: cell-based, human; details: all cultures, both Alzheimer's and control
Experimental: as §1
Culture supernatants were analyzed for C3 using the Millipore Luminex Multiplex Kit on the FlexMap 3D system. […]

[7] = tested on: pMacs; experiment: Serum-free maturation of pMacs into macrophages; format: cell-based, human; details: pMacs in IMDM/F12/N2/B27 without serum
Excerpt: In the second strategy to generate microglia, the EMPs were matured into macrophages with 10% serum and M-CSF and IL-34. They developed the mature macrophage marker Cd11b by day 4 in culture, and the mature spindle morphology by day 11 (FIG. 10). All the cells that persisted in culture in serum and M-CSF and IL-34 after 11 days were CD45^+, indicating they were all hematopoietic. The majority also were positive for mature macrophage markers such as CX3CR1, CD14, Cd11b, and dectin by flow cytometry analysis (FIG. 11). The pMacs can also be matured into macrophages without serum, using IMDM/F12/N2/B27 in place of serum along with M-CSF and IL-34 (FIG. 12). […] Macrophage cells co-cultured with neurons yielded microglial cells with branching morphology and increased Iba1 immunofluorescence staining (FIG. 13). Iba1 was increased in microglial cells from macrophages, so the cells had transitioned into microglial identity through co-culture with neurons. Co-cultured pMac-derived microglia (EMP co-culture) and pMac-macrophage derived microglia (EMP-macrophage co-culture) share expression of key microglial genes with human fetal microglia (FIG. 14). Quantitative PCR of RNA from the two different strategies to derive microglia shared gene expression of a panel of key microglial genes with RNA from human fetal microglia (commercial source).

Cc1c[nH]c(-c2cnc(NCCNc3ccc(C#N)cn3)nc2-c2ccc(Cl)cc2Cl)n1 [CHIR99021, 6-(2-(4-(2,4-dichlorophenyl)-5-(4-methyl-1H-imidazol-2-yl)pyrimidin-2-ylamino)ethylamino)nicotinonitrile]
percentage of primitive hematopoietic precursors (KDR+CD235a+) ([1]; 18 hr at 3 uM followed by Wnt inhibition via IWP2 at 3 uM, flow cytometry): highest percentage | early mesoderm marked by Brachyury (T) ([1]; eighteen hours of Wnt activation, immunofluorescence): gave rise to early mesoderm | IC50 values against rodent GSK3β homologs [2]: nanomolar

Cc1ccc2nc(NC(=O)CSc3nc4c(c(=O)n3-c3ccccc3)SCC4)sc2c1 [IWP-2, N-(6-methyl-1,3-benzothiazol-2-yl)-2-[(4-oxo-3-phenyl-6,7-dihydrothieno[3,2-d]pyrimidin-2-yl)thio]acetamide]
IC50 [3]: 27 nM

Oc1nc(-c2ccc(C(F)(F)F)cc2)nc2c1CSCC2 [XAV939]
degradation of β-catenin [4]: promotes the degradation of β-catenin | protein levels of the axin-GSK3β complex [4]: increases

GM-CSF: granulocyte-macrophage colony-stimulating factor
phagocytosis of amyloid-beta 40 [5]: increased | phagocytosis of amyloid-beta 42 [5]: increased | C3 release [6]: diminished | cell yield / cell division and appearance [7]: allowed division of the cells as well but the resulting cells appeared more granular and activated
